In ChEMBL document CHEMBL5149994, “Anticancer potential of indirubins in medicinal chemistry: Biological activity, structural modification, and structure-activity relationship” (Eur J Med Chem, 2021):
pIC50: −log10 of the molar value. Values after ≈ are worked out from the molar mass of the structure shown. Blank lines part the entries; values can stand above or below the compound they belong to.

What was measured:
[1] = tested on: HepG2; assay: Antiproliferative activity against human HepG2 cells assessed as cell growth inhibition; format: functional, cell-based
[2] = tested on: SW480; assay: Antiproliferative activity against human SW480 cells assessed as cell growth inhibition; format: functional, cell-based
[3] = Antiproliferative activity against human Lu1 cells assessed as cell growth inhibition; format: functional, cell-based
[4] = tested on: HL-60; assay: Antiproliferative activity against human HL-60 cells assessed as cell growth inhibition; format: functional, cell-based
[5] = tested on: A549; assay: Antiproliferative activity against human A549 cells assessed as cell growth inhibition measured after 24 hrs by MTT assay; format: functional, cell-based; details: A549, 24 h
[6] = tested on: SNU-638; assay: Antiproliferative activity against human SNU-638 cells assessed as cell growth inhibition measured after 24 hrs by MTT assay; format: functional, cell-based; details: SNU-638, 24 h
[7] = Cytotoxicity against rat RK3E cells harboring RAS assessed as cell growth inhibition measured after 24 hrs by MTT assay; format: toxicity, cell-based
[8] = tested on: HT-1080; assay: Antiproliferative activity against human HT-1080 cells assessed as cell growth inhibition measured after 24 hrs by MTT assay; format: functional, cell-based; details: HT-1080, 24 h
[9] = tested on: NCI-H157; assay: Cytotoxicity against human NCI-H157 cells assessed as cell growth inhibition at 100 uM by calcein-AM staining based flow cytometry analysis relative to control; format: functional; design: scale not given: the % may be the effect or the level left
[10] = tested on: MCF7; assay: Cytotoxicity against human MCF7 cells assessed as cell growth inhibition measured after 4 days by crystal violet staining based assay; format: functional; details: MCF7, 96 h
[11] = Kinetic solubility of compound in PBS at pH 7.4; format: physicochemical; details: read-out: Kinetic_solubility
[12] = Inhibition of GST-tagged recombinant human CDK2/cyclin E expressed in Sf9 cells incubated for 10 mins in presence of [33P]-gamma ATP and ATP by scintillation counter method
[13] = tested on: SW480; assay: Antiproliferative activity against human SW480 cells assessed as cell growth inhibition measured after 72 hrs by MTT assay; format: functional, cell-based; details: SW480, 72 h
[14] = tested on: HepG2; assay: Antiproliferative activity against human HepG2 cells assessed as cell growth inhibition measured after 72 hrs by MTT assay; format: functional, cell-based; details: HepG2, 72 h
[15] = Antiproliferative activity against human Lu1 cells assessed as cell growth inhibition measured after 72 hrs by MTT assay; format: functional, cell-based; details: Lu1, 72 h
[16] = tested on: HL-60; assay: Antiproliferative activity against human HL-60 cells assessed as cell growth inhibition measured after 72 hrs by MTT assay; format: functional, cell-based; details: HL-60, 72 h
[17] = Cytotoxicity against human SK-MEL-29 cells assessed as cell growth inhibition measured after 24 hrs by WST-1 assay; format: functional, cell-based; details: SK-MEL-29, 24 h
[18] = tested on: SK-MEL19; assay: Cytotoxicity against human SK-MEL19 cells assessed as cell growth inhibition measured after 24 hrs by WST-1 assay; format: functional, cell-based; details: SK-MEL19, 24 h
[19] = tested on: MCF7; assay: Cytotoxicity against human MCF7 cells assessed as cell growth inhibition; format: functional, cell-based
[20] = tested on: SK-MEL-103; assay: Cytotoxicity against human SK-MEL-103 cells assessed as cell growth inhibition measured after 24 hrs by WST-1 assay; format: functional, cell-based; details: SK-MEL-103, 24 h
[21] = tested on: HL-60; assay: Cytotoxicity against human HL-60 cells assessed as cell growth inhibition; format: functional, cell-based
[22] = target: Cyclin-dependent kinase 5/CDK5 activator 1 (Homo sapiens, UniProt Q00535); assay: Inhibition of CDK5/p35 (unknown origin); format: protein-complex assay
Sequence of Cyclin-dependent kinase 5/CDK5 activator 1 (Q00535 whole entry): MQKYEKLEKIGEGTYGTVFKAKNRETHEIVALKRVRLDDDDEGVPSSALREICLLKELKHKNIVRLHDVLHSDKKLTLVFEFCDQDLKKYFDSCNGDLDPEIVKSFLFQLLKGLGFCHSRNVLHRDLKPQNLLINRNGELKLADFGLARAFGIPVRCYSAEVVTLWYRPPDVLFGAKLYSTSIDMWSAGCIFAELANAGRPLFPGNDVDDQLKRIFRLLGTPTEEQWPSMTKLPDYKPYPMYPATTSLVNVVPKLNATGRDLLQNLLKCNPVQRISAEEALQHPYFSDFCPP
Sequence of Cyclin-dependent kinase 5/CDK5 activator 1 (Q15078 whole entry, further chain): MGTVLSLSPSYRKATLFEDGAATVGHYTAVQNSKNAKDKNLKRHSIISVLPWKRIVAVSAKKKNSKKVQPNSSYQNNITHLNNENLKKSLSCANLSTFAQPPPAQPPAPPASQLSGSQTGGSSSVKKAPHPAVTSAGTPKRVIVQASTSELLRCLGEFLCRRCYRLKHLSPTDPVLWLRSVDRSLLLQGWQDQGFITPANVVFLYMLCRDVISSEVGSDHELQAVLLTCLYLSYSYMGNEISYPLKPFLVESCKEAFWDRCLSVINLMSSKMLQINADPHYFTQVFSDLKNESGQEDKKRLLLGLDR

[23] = Inhibition of starfish oocyte CDK1/Cyclin B using histone H1 as substrate incubated for 10 mins in presence of [gamma-32P]ATP by scintillation counter analysis; design: species or system Marthasterias glacialis
[24] = tested on: A549; assay: Antiproliferative activity against human A549 cells assessed as cell growth inhibition measured after 96 hrs by MTT assay; format: functional, cell-based; details: A549, 96 h
[25] = tested on: SW480; assay: Antiproliferative activity against human SW480 cells assessed as cell growth inhibition measured after 96 hrs by MTT assay; format: functional, cell-based; details: SW480, 96 h
[26] = tested on: CH1; assay: Antiproliferative activity against human CH1 cells assessed as cell growth inhibition measured after 96 hrs by MTT assay; format: functional, cell-based; details: CH1, 96 h
[27] = tested on: MCF7; assay: Cytotoxicity against human MCF7 cells assessed as cell growth inhibition by MTT assay; format: functional, cell-based
[28] = tested on: LoVo; assay: Cytotoxicity against human LoVo cells assessed as cell growth inhibition by MTT assay; format: functional, cell-based
[29] = tested on: DU-145; assay: Cytotoxicity against human DU-145 cells assessed as cell growth inhibition by MTT assay; format: functional, cell-based
[30] = tested on: LNCaP; assay: Cytotoxicity against human LNCaP cells assessed as cell growth inhibition by MTT assay; format: functional, cell-based
[31] = tested on: PC-3; assay: Cytotoxicity against human PC-3 cells assessed as cell growth inhibition by MTT assay; format: functional, cell-based
[32] = tested on: MV4-11; assay: Cytotoxicity in human MV4-11 cells assessed as cell growth inhibition incubated for 48 hrs by propidium iodide staining based flow cytometry assay; format: functional
[33] = tested on: U-87 MG; assay: Cytotoxicity against human U87 cells assessed as cell growth inhibition measured after 24 hrs by MTT assay
[34] = Inhibition of CDK2/cyclin E (unknown origin); design: species or system Homo sapiens
[35] = tested on: U-118-MG; assay: cells; details: Homo sapiens, 24 h
Description: Cytotoxicity against human U-118-MG cells assessed as cell growth inhibition measured after 24 hrs by MTT assay

[36] = tested on: HL-60; assay: Cytotoxicity against human HL-60 cells assessed as cell growth inhibition measured after 24 hrs by MTT assay; details: HL-60, 24 h, read-out: LC50
[37] = tested on: HeLa; assay: Cytotoxicity against human HeLa cells assessed as cell growth inhibition measured after 24 hrs by SRB assay
[38] = tested on: SK-MEL-147; assay: Cytotoxicity against human SK-MEL-147 cells assessed as cell growth inhibition measured after 24 hrs by WST-1 assay; format: functional, cell-based; details: SK-MEL-147, 24 h

pIC50 [1]: 4.81 | pIC50 [2]: 4.80 | pIC50 [4]: 4.92
Structure (SMILES): Cc1cccc(Nc2nnc(SCC(O)CO/N=C3/C(=C4/C(=O)Nc5ccccc54)Nc4ccccc43)s2)c1C (stereo not given)
pIC50 [3]: 4.72

pIC50 [5]: 4.91 | pIC50 [6]: 5.68 | pIC50 [8]: 5.47
Structure (SMILES): O=C1Nc2ccc(F)cc2/C1=C1/Nc2ccccc2/C1=N\O
IC50 at 24 h [7]: 5.1 µM

pIC50 [1]: 4.75 | pIC50 [2]: 4.79 | pIC50 [4]: 5.02
Structure (SMILES): O=C1Nc2ccccc2/C1=C1/Nc2ccccc2/C1=N\OCC(O)CSc1nnc(Nc2ccccc2)s1 (stereo not given)
pIC50 [3]: 4.77

solubility kinetic [11]: > 40 µg/mL
Structure (SMILES): CN(C)S(=O)(=O)c1ccc2c(c1)/C(=C1/Nc3ccccc3C1(C)O)C(=O)N2 (stereo not given)
pIC50 [10]: 6.15 | pIC50 [12]: 7.15

solubility kinetic [11]: < 1 µg/mL
Structure (SMILES): CN(C)S(=O)(=O)c1ccc2c(c1)/C(=C1/Nc3ccccc3C1=O)C(=O)N2
pIC50 [10]: < 5.00 | pIC50 [12]: 7.40

pIC50 [22]: 7.19
Structure (SMILES): O=C1Nc2ccc(S(=O)(=O)O)cc2/C1=C1/Nc2ccccc2C1=O
pIC50 [23]: 7.26

pIC50 [24]: 5.12 | pIC50 [25]: 5.25
Structure (SMILES): CC(=O)O[C@H](CN)CC(=O)O/N=C1/C(=C2/C(=O)Nc3ccccc32)Nc2ccc(O)cc21
pIC50 [26]: 5.74

pIC50 [5]: 5.19 | pIC50 [6]: 5.19 | pIC50 [8]: 5.38
Structure (SMILES): CC(C)(C)C(=O)Nc1ccc2c(c1)/C(=C1/Nc3ccccc3/C1=N\O)C(=O)N2
IC50 at 24 h [7]: 6.4 µM

solubility kinetic [11]: 31 µg/mL (≈ 75.3 µM)
Structure (SMILES): C=CCC1(O)/C(=C2/C(=O)Nc3ccc(S(=O)(=O)N(C)C)cc32)Nc2ccccc21 (stereo not given)
pIC50 [10]: 6.70 | pIC50 [12]: 7.05

pIC50 [24]: 6.00 | pIC50 [25]: 6.28
Structure (SMILES): NCCO/N=C1/C(=C2/C(=O)Nc3ccc(Br)cc32)Nc2ccc(O)cc21
pIC50 [26]: 6.55

solubility kinetic [11]: < 1 µg/mL
Structure (SMILES): CN(C)S(=O)(=O)c1ccc2c(c1)/C(=C1/Nc3ccccc3/C1=N\O)C(=O)N2
pIC50 [10]: 6.40 | pIC50 [12]: 7.40

Continued, compound first:

Structure (SMILES): O=C1Nc2ccc(OC(F)(F)F)cc2/C1=C1/[Se]c2ccccc2C1=O
Activity [9]: 17.4%

Structure (SMILES): CCOc1ccccc1/C=C/C(=O)c1ccc(OCCn2cc(CN3C(=O)/C(=C4\Nc5ccccc5\C4=N/O)c4ccccc43)nn2)cc1O
pIC50 [13]: 5.60 | pIC50 [14]: 5.70 | pIC50 [15]: 5.89 | pIC50 [16]: 6.01

Structure (SMILES): C[C@@H]1O[C@H](N2C(=O)/C(=C3\Nc4ccccc4C3=O)c3ccccc32)[C@H](O)[C@H](O)[C@H]1O
pIC50 [17]: 4.06 | pIC50 [18]: 4.18 | pIC50 [19]: 6.17 | pIC50 [20]: 3.42

Structure (SMILES): O=C1/C(=C2/C(=O)N(CCN3CCCC3)c3ccccc32)Nc2ccccc21
pIC50 [21]: 5.45

Structure (SMILES): O=C1/C(=C2/C(=O)N(CC(O)CSc3nnc(Nc4ccccc4)s3)c3ccccc32)Nc2ccccc21 (stereo not given)
pIC50 [1]: 5.72 | pIC50 [2]: 5.78 | pIC50 [3]: 5.66 | pIC50 [4]: 5.87

Structure (SMILES): CCN1C(=O)/C(=C2\Nc3ccccc3\C2=N/O)c2ccccc21
pIC50 [27]: 5.17 | pIC50 [28]: 5.07 | pIC50 [29]: 5.13 | pIC50 [30]: 4.99 | pIC50 [31]: 4.87

Structure (SMILES): COC(=O)c1ccc2c(c1)/C(=C1/Nc3ccccc3/C1=N\O)C(=O)N2
GI50 [32]: 0.0541 µM

Structure (SMILES): O=C1Nc2ccccc2/C1=C1/Nc2ccccc2C1=O [INDIRUBIN]
pIC50 [33]: 4.90 | pIC50 [34]: 5.12 | pIC50 [35]: 4.90 | CC50 [36]: 98.1 µg/mL (≈ 374 µM) | pIC50 [37]: 4.40

Structure (SMILES): C[C@@H]1O[C@H](N2C(=O)/C(=C3\Sc4ccccc4C3=O)c3ccccc32)[C@H](O)[C@H](O)[C@H]1O
pIC50 [17]: 5.20 | pIC50 [18]: 4.92 | pIC50 [20]: 4.98 | pIC50 [38]: 5.12

Structure (SMILES): C[C@@H]1O[C@H](N2C(=O)/C(=C3\Nc4ccc(Cl)cc4C3=O)c3ccccc32)[C@H](O)[C@H](O)[C@H]1O
pIC50 [19]: 5.16

Structure (SMILES): CCCOc1cccc(/C=C/C(=O)c2ccc(OCCn3cc(CN4C(=O)/C(=C5\Nc6ccccc6\C5=N/O)c5ccccc54)nn3)cc2O)c1
pIC50 [13]: 5.54 | pIC50 [14]: 5.53 | pIC50 [15]: 5.60 | pIC50 [16]: 5.89
